Test results: the supplement of paper PMC10331698
± gives the standard deviation of the averaged measurements.

What was measured:
Experiment in all cases: level (log10 ratio to DMSO vehicle control); higher = higher biomarker level / cell amount than vehicle control
Details in all cases: in DMSO
[1] = compound: OCC(F)(F)C(F)(F)C(F)(F)C(F)(F)C(F)(F)C(F)(F)C(F)(F)C(F)(F)CO [1H,1H,10H,10H-Perfluorodecane-1,10-diol]
Description: (§1)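 BioMAP Diversity Plus panel of 12 human primary cell co-culture systems (3C, 4H, LPS, SAg, BT, BF4T, BE3C, CASM3C, HDF3CGF, KF3CT, MyoF, Mphg). Compounds were added 1 h before stimulation and left for 24 h (MyoF 48 h; BT 72 h for soluble read-outs or 6 d for IgG). Biomarkers were read by ELISA, cytotoxicity by SRB, PBMC viability and proliferation by Alamar Blue. Each well value was divided by the mean of 8 DMSO control wells on the same plate and log10 transformed; duplicate blinded samples were tested at 4 concentrations.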

[2] = compound: O=C(Cl)C(F)(F)C(F)(F)C(F)(F)C(=O)Cl [Hexafluoroglutaryl chloride]
Description: as §1

[3] = compound: O=C(O)C(F)(F)C(F)(F)C(F)(F)C(F)(F)C(F)(F)C(F)(F)C(F)(F)F [Perfluorooctanoic acid]
Description: as §1

[4] = compound: FC(F)(F)C(F)(F)C(F)(F)C(F)(F)CCI [1H,1H,2H,2H-Perfluorohexyl iodide]
Description: as §1

[5] = compound: OC(C(F)(F)F)(C(F)(F)F)C(O)(C(F)(F)F)C(F)(F)F [Perfluoropinacol]
Description: as §1

[6] = compound: CN(Cc1cnc2nc(N)nc(N)c2n1)c1ccc(C(=O)N[C@@H](CCC(=O)O)C(=O)O)cc1 [Methotrexate]
Description: as §1

[7] = compound: O=C(CC(=O)C(F)(F)C(F)(F)C(F)(F)F)c1cccs1 [(Perfluorobutyryl)-2-thenoylmethane]
Description: as §1

Row | Test System | level (log10) ([1]; 6700 nM) | level (log10) ([1]; 20000 nM) | level (log10) ([1]; 60000 nM) | level (log10) ([2]; 6700 nM) | level (log10) ([2]; 20000 nM) | level (log10) ([2]; 60000 nM) | level (log10) ([3]; 6700 nM) | level (log10) ([3]; 20000 nM) | level (log10) ([3]; 60000 nM) | level (log10) ([4]; 6700 nM) | level (log10) ([4]; 20000 nM) | level (log10) ([4]; 60000 nM) | level (log10) ([5]; 6700 nM) | level (log10) ([5]; 20000 nM) | level (log10) ([6]; 1500 nM) | level (log10) ([6]; 4400 nM) | level (log10) ([6]; 13000 nM) | level (log10) ([6]; 40000 nM) | level (log10) ([7]; 6700 nM) | level (log10) ([7]; 20000 nM)
1 | BE3C:MMP-1 | 0.054 ± 0.0071 | 0.103 ± 0.042 | 0.137 | -0.001 ± 0.014 | -0.008 ± 0.014 | 0.0065 ± 0.016 | -0.0085 ± 0.012 | 0.044 | 0.226 ± 0.035 | 0 ± 0.023 | 0.017 ± 0.021 | 0.0975 ± 0.023 | 0.0275 ± 0.0021 | -0.003 ± 0.0057 | -0.028 ± 0.024 | -0.011 ± 0.044 | 0.034 ± 0.016 | 0.031 ± 0.014 | 0.0945 ± 0.015 | -0.051 ± 0.017
2 | BE3C:MMP-9 | 0 ± 0.0071 | -0.041 ± 0.0042 | -0.14 | -0.0005 ± 0.00071 | -0.003 ± 0.018 | -0.0325 ± 0.042 | -0.0185 ± 0.012 | 0.015 ± 0.0028 | 0.079 ± 0.047 | 0.0015 ± 0.05 | -0.006 ± 0.028 | 0.029 ± 0.047 | -0.011 ± 0.0014 | -0.04 ± 0.0028 | 0.014 ± 0.021 | -0.0025 ± 0.011 | 0.0045 ± 0.079 | 0.0085 ± 0.015 | 0.0275 ± 0.013 | -0.269 ± 0.0099
3 | BE3C:PAI-I | 0.041 ± 0.0085 | -0.0655 ± 0.0035 | -0.192 | -0.0285 ± 0.053 | -0.0715 ± 0.059 | -0.0935 ± 0.094 | 0.001 ± 0.0042 | 0.0395 ± 0.013 | 0.041 ± 0.0028 | -0.0335 ± 0.0064 | -0.0305 ± 0.036 | -0.051 ± 0.0085 | -0.119 ± 0.016 | -0.189 ± 0.0085 | -0.0595 ± 0.015 | -0.031 ± 0.045 | -0.051 ± 0.048 | -0.0665 ± 0.084 | -0.127 ± 0.023 | -0.363 ± 0.035
4 | BE3C:SRB | -0.003 | -0.0105 ± 0.00071 | -0.024 | 0.0045 ± 0.0092 | 0.0065 ± 0.013 | 0.0115 ± 0.0035 | -0.0065 ± 0.00071 | -0.0025 ± 0.0021 | -0.014 ± 0.0099 | -0.003 ± 0.0028 | -0.0035 ± 0.00071 | 0.002 ± 0.011 | -0.0115 ± 0.0035 | -0.0285 ± 0.00071 | -0.0035 ± 0.0064 | -0.009 ± 0.0014 | -0.0025 ± 0.00071 | 0.001 ± 0.014 | -0.02 ± 0.0071 | -0.031 ± 0.0071
5 | BE3C:tPA | 0.073 ± 0.021 | 0.097 ± 0.011 | -0.108 | -0.005 ± 0.0014 | -0.009 ± 0.014 | -0.0075 ± 0.022 | -0.0515 ± 0.025 | -0.0285 ± 0.036 | -0.038 ± 0.0085 | -0.001 ± 0.0028 | 0.0175 ± 0.019 | 0.051 ± 0.014 | -0.0455 ± 0.0078 | -0.224 ± 0.012 | 0.012 ± 0.0071 | -0.004 ± 0.075 | 0.0085 ± 0.091 | 0.0215 ± 0.033 | -0.1 ± 0.014 | -0.234 ± 0.011
6 | BE3C:uPA | -0.008 ± 0.011 | -0.0315 ± 0.0021 | -0.078 | -0.0015 ± 0.0064 | -0.004 ± 0.0028 | -0.0035 ± 0.0064 | -0.014 ± 0.013 | -0.0065 ± 0.0021 | 0.0185 ± 0.015 | -0.001 ± 0.0071 | -0.007 ± 0.0071 | -0.001 ± 0.0014 | -0.0055 ± 0.005 | -0.042 ± 0.011 | -0.013 ± 0.0028 | -0.0315 ± 0.033 | -0.0205 ± 0.052 | -0.0015 ± 0.036 | 0.0235 ± 0.00071 | 0.0095 ± 0.022
7 | CASM3C:CCL2/MCP-1 | 0 ± 0.0028 | -0.027 ± 0.0028 | 0.02 | -0.0055 ± 0.013 | -0.005 ± 0.0014 | 0.011 ± 0.014 | 0.007 ± 0.0085 | -0.01 ± 0.03 | 0.0215 ± 0.022 | 0.0045 ± 0.0021 | -0.008 ± 0.0028 | 0.0235 ± 0.067 | 0.0185 ± 0.013 | 0.096 ± 0.017 | 0 ± 0.0028 | -0.0125 ± 0.005 | -0.002 ± 0.016 | -0.0195 ± 0.025 | 0.039 ± 0.011 | -0.017 ± 0.011
